Source: patent publication US12473584B2, “Method for detecting the presence, identification and quantification in a blood sample of anticoagulants which are blood coagulation enzymes inhibitors, and means for the implementation thereof” (DIAGNOSTICA STAGO, priority 2018, dated 2025)

Molecular target: T1, bovine factor Xa (Bos taurus, UniProt P00743)
T1 construct: (bovine factor Xa); purchased Stago (Diagnostica Stago) STA®—Liquid Anti-Xa commercial kit (catalogue number not given)
Assay: competitive enzymatic assay, enzyme-substrate reaction (universal methodology, STA-Liquid Anti-Xa kit)
Format: biochemical
Conditions: bovine factor Xa [E]≈10 nM, substrate [S]≈482 μM, 37° C.
Experimental: In accordance with this particular embodiment, the in vitro measurement for the detection, the identification, and the quantification of synthetic inhibitors of factor Xa was carried out in accordance with the following principle: • 25 μL of a plasma sample suspected of containing a heparin or an anti-Xa DOAC was diluted in 25 μL of Owren Koller buffer (TOK), then placed in a consumable; • 150 μL of “Substrate” reagent (MAPA-Gly-Arg-pNA) (reagent in the STA®—Liquid Anti-Xa commercial kit) specific for factor Xa was added to the reaction mixture; • an incubation step of 240 seconds raised the reaction mixture to 37° C.; • 150 μL of the reagent “F. Xa” (bovine factor Xa) (reagent in the STA®—Liquid Anti-Xa commercial kit) was added to the reaction mixture, thereby initiating competition between the inhibition reaction and the enzymatic reaction; • the measurement per se was then carried out over 156 seconds: factor Xa transforms the substrate into product while at the same time being inhibited by the heparin or the DOAC if they are present in the sample. […]

T1 sequence (P00743 234-492 limits assumed): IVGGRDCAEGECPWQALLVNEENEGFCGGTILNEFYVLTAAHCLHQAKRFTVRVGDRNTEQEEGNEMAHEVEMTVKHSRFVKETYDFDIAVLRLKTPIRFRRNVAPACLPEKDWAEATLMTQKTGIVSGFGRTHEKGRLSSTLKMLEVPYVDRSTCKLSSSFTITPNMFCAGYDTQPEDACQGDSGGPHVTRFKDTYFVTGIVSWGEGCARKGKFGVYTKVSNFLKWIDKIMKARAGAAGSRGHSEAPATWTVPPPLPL
T1 sequence (P00743 41-180 limits assumed): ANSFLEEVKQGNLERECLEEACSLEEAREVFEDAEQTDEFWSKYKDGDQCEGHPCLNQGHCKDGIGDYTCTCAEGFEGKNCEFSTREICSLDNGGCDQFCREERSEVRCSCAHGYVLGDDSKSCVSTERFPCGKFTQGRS

For MAPA-Gly-Arg-pNA, the “Michaelis constant KM associated with the enzyme-substrate reaction” value was roughly 500 µM and the “catalytic constant kcat associated with the enzyme-substrate reaction” value was “approximately 400 s-1”.
